Results on seven compounds are retold here after ChEMBL document CHEMBL1649389, “Microwave supported synthesis of some novel 1,3-diarylpyrazino[1,2-a]benzimidazole derivatives and investigation of their anticancer activities” (2011).

Tested on in the first assay: not listed separately
Put plainly: Cytotoxicity against human melanoma cells assessed as cell growth after 48 hrs by SRB assay. The format is functional.
Settings: not given
For orientation: Sulforhodamine B stains cellular protein and so reports cell mass.
In the case of `COc1ccc(C(=O)Cn2c(C(=O)c3ccccc3)nc3ccccc32)cc1`, the GI50 (as a rule, the concentration that inhibits growth by half) was 2.95 µM.

With `N[C@@H](Cc1ccc(N(CCCl)CCCl)cc1)C(=O)O`, the GI50 is 8.32 µM.

As for `COc1ccc(C(=O)c2nc3ccccc3n2CC(=O)c2ccc(Cl)cc2)cc1`, the GI50 is 2.45 µM.

On to `COc1ccc(C(=O)Cn2c(C(=O)c3ccc(Cl)cc3)nc3ccccc32)cc1`, for which the GI50 is 9.55 µM.

Consider `COc1ccc(C(=O)Cn2c(C(=O)c3ccc(OC)cc3)nc3ccccc32)cc1`, for which the GI50 is 3.24 µM.

Regarding `O=C(Cn1c(C(=O)c2ccccc2)nc2ccccc21)c1ccc(F)cc1`, the GI50 is 4.57 µM.

On to `O=C(Cn1c(C(=O)c2ccccc2)nc2ccccc21)c1ccccc1`, for which the GI50 was 100 µM.

Tested on in the next assay: not listed separately
As to the kind of experiment: Cytotoxicity against human ovarian cancer cells assessed as cell growth after 48 hrs by SRB assay. Conditions: Cancer cell lines. Type of assay: functional.
In the case of `COc1ccc(C(=O)Cn2c(C(=O)c3ccccc3)nc3ccccc32)cc1`, the GI50 was 3.63 µM.

On to `N[C@@H](Cc1ccc(N(CCCl)CCCl)cc1)C(=O)O`, for which the GI50 is 6.61 µM.

As for `COc1ccc(C(=O)c2nc3ccccc3n2CC(=O)c2ccc(Cl)cc2)cc1`, the GI50 was 5.25 µM.

Consider `COc1ccc(C(=O)Cn2c(C(=O)c3ccc(Cl)cc3)nc3ccccc32)cc1`, for which the GI50 was 17.8 µM.

As for `COc1ccc(C(=O)Cn2c(C(=O)c3ccc(OC)cc3)nc3ccccc32)cc1`, the GI50 was 3.02 µM.

As to `O=C(Cn1c(C(=O)c2ccccc2)nc2ccccc21)c1ccc(F)cc1`, the concentration for 50% growth inhibition (GI50) is 10.7 µM.

Turning to `O=C(Cn1c(C(=O)c2ccccc2)nc2ccccc21)c1ccccc1`, the GI50 was 100 µM.

Tested on in the next assay: not listed separately
As to the kind of experiment: Cytotoxicity against human breast cancer cells assessed as cell growth after 48 hrs by SRB assay. The format is functional. Conditions: Cancer cell lines.
Turning to `COc1ccc(C(=O)Cn2c(C(=O)c3ccccc3)nc3ccccc32)cc1`, the GI50 is 2.24 µM.

For the compound `N[C@@H](Cc1ccc(N(CCCl)CCCl)cc1)C(=O)O`, the GI50 was 16.2 µM.

Regarding `COc1ccc(C(=O)c2nc3ccccc3n2CC(=O)c2ccc(Cl)cc2)cc1`, the GI50 was 3.47 µM.

In the case of `COc1ccc(C(=O)Cn2c(C(=O)c3ccc(Cl)cc3)nc3ccccc32)cc1`, the GI50 is 6.17 µM.

For the compound `COc1ccc(C(=O)Cn2c(C(=O)c3ccc(OC)cc3)nc3ccccc32)cc1`, the GI50 is 2.4 µM.

Regarding `O=C(Cn1c(C(=O)c2ccccc2)nc2ccccc21)c1ccc(F)cc1`, the GI50 was 3.98 µM.

For `O=C(Cn1c(C(=O)c2ccccc2)nc2ccccc21)c1ccccc1`, the GI50 was 9.33 µM.

Tested on in a further assay: not listed separately
As to the kind of experiment: Cytotoxicity against human renal cancer cells assessed as cell growth after 48 hrs by SRB assay. The format is functional. Conditions: Cancer cell lines.
Take `COc1ccc(C(=O)Cn2c(C(=O)c3ccccc3)nc3ccccc32)cc1`: the GI50 was 3.24 µM.

As for `N[C@@H](Cc1ccc(N(CCCl)CCCl)cc1)C(=O)O`, the GI50 is 10.2 µM.

Consider `COc1ccc(C(=O)c2nc3ccccc3n2CC(=O)c2ccc(Cl)cc2)cc1`, for which the GI50 is 3.72 µM.

Regarding `COc1ccc(C(=O)Cn2c(C(=O)c3ccc(Cl)cc3)nc3ccccc32)cc1`, the GI50 is 14.1 µM.

For the compound `COc1ccc(C(=O)Cn2c(C(=O)c3ccc(OC)cc3)nc3ccccc32)cc1`, the GI50 is 3.89 µM.

Regarding `O=C(Cn1c(C(=O)c2ccccc2)nc2ccccc21)c1ccc(F)cc1`, the 50% growth inhibitory concentration (GI50) was 2.75 µM.

As to `O=C(Cn1c(C(=O)c2ccccc2)nc2ccccc21)c1ccccc1`, the concentration for 50% growth inhibition (GI50) is 87.1 µM.

Tested on in another assay: not listed separately
Put plainly: Cytotoxicity against human CNSC cells assessed as cell growth after 48 hrs by SRB assay. Type of assay: functional.
Settings: not given
With `COc1ccc(C(=O)Cn2c(C(=O)c3ccccc3)nc3ccccc32)cc1`, the 50% growth inhibitory concentration (GI50) was 3.98 µM.

On to `N[C@@H](Cc1ccc(N(CCCl)CCCl)cc1)C(=O)O`, for which the GI50 was 7.59 µM.

Turning to `COc1ccc(C(=O)c2nc3ccccc3n2CC(=O)c2ccc(Cl)cc2)cc1`, the GI50 is 3.39 µM.

`COc1ccc(C(=O)Cn2c(C(=O)c3ccc(Cl)cc3)nc3ccccc32)cc1`: the GI50 was 16.6 µM.

In the case of `COc1ccc(C(=O)Cn2c(C(=O)c3ccc(OC)cc3)nc3ccccc32)cc1`, the GI50 is 3.31 µM.

As to `O=C(Cn1c(C(=O)c2ccccc2)nc2ccccc21)c1ccc(F)cc1`, the concentration for 50% growth inhibition (GI50) was 8.51 µM.

For `O=C(Cn1c(C(=O)c2ccccc2)nc2ccccc21)c1ccccc1`, the GI50 was 83.2 µM.

In the next assay the test system is NSCLC. As to the kind of experiment: Cytotoxicity against human NSCLC cells assessed as cell growth after 48 hrs by SRB assay. The format is functional.
Settings: not given
`COc1ccc(C(=O)Cn2c(C(=O)c3ccccc3)nc3ccccc32)cc1`: the GI50 was 9.33 µM.

Consider `N[C@@H](Cc1ccc(N(CCCl)CCCl)cc1)C(=O)O`, for which the GI50 is 6.76 µM.

Take `COc1ccc(C(=O)c2nc3ccccc3n2CC(=O)c2ccc(Cl)cc2)cc1`: the GI50 was 14.5 µM.

For the compound `COc1ccc(C(=O)Cn2c(C(=O)c3ccc(Cl)cc3)nc3ccccc32)cc1`, the GI50 was 18.6 µM.

Turning to `COc1ccc(C(=O)Cn2c(C(=O)c3ccc(OC)cc3)nc3ccccc32)cc1`, the GI50 is 15.1 µM.

In the case of `O=C(Cn1c(C(=O)c2ccccc2)nc2ccccc21)c1ccc(F)cc1`, the 50% growth inhibitory concentration (GI50) was 18.6 µM.

Consider `O=C(Cn1c(C(=O)c2ccccc2)nc2ccccc21)c1ccccc1`, for which the GI50 is 69.2 µM.

Tested on in a further assay: not listed separately
Put plainly: Cytotoxicity against human prostate cancer cells assessed as cell growth after 48 hrs by SRB assay. Type of assay: functional. To be noted: Cancer cell lines.
As to `COc1ccc(C(=O)Cn2c(C(=O)c3ccccc3)nc3ccccc32)cc1`, the GI50 was 3.24 µM.

With `N[C@@H](Cc1ccc(N(CCCl)CCCl)cc1)C(=O)O`, the GI50 was 32.4 µM.

On to `COc1ccc(C(=O)c2nc3ccccc3n2CC(=O)c2ccc(Cl)cc2)cc1`, for which the GI50 was 3.02 µM.

Consider `COc1ccc(C(=O)Cn2c(C(=O)c3ccc(Cl)cc3)nc3ccccc32)cc1`, for which the GI50 is 24 µM.

Take `COc1ccc(C(=O)Cn2c(C(=O)c3ccc(OC)cc3)nc3ccccc32)cc1`: the GI50 is 2.95 µM.

For the compound `O=C(Cn1c(C(=O)c2ccccc2)nc2ccccc21)c1ccc(F)cc1`, the GI50 was 13.5 µM.

As for `O=C(Cn1c(C(=O)c2ccccc2)nc2ccccc21)c1ccccc1`, the GI50 is 72.4 µM.

Tested on in a further assay: not listed separately
Put plainly: Cytotoxicity against human colon cancer cells assessed as cell growth after 48 hrs by SRB assay. The format is functional. To be noted: Cancer cell lines.
As to `COc1ccc(C(=O)Cn2c(C(=O)c3ccccc3)nc3ccccc32)cc1`, the GI50 is 1.51 µM.

On to `N[C@@H](Cc1ccc(N(CCCl)CCCl)cc1)C(=O)O`, for which the GI50 is 7.76 µM.

As for `COc1ccc(C(=O)c2nc3ccccc3n2CC(=O)c2ccc(Cl)cc2)cc1`, the GI50 is 2.51 µM.

Turning to `COc1ccc(C(=O)Cn2c(C(=O)c3ccc(Cl)cc3)nc3ccccc32)cc1`, the GI50 is 5.01 µM.

For the compound `COc1ccc(C(=O)Cn2c(C(=O)c3ccc(OC)cc3)nc3ccccc32)cc1`, the GI50 is 1.26 µM.

For `O=C(Cn1c(C(=O)c2ccccc2)nc2ccccc21)c1ccc(F)cc1`, the 50% growth inhibitory concentration (GI50) is 3.55 µM.

As for `O=C(Cn1c(C(=O)c2ccccc2)nc2ccccc21)c1ccccc1`, the GI50 was 63.1 µM.

Tested on in another assay: not listed separately
Put plainly: Cytotoxicity against human leukemia cells assessed as cell growth after 48 hrs by SRB assay. The format is functional.
Settings: not given
With `COc1ccc(C(=O)Cn2c(C(=O)c3ccccc3)nc3ccccc32)cc1`, the GI50 is 0.724 µM.

`N[C@@H](Cc1ccc(N(CCCl)CCCl)cc1)C(=O)O`: the 50% growth inhibitory concentration (GI50) is 3.31 µM.

`COc1ccc(C(=O)c2nc3ccccc3n2CC(=O)c2ccc(Cl)cc2)cc1`: the GI50 is 0.724 µM.

For `COc1ccc(C(=O)Cn2c(C(=O)c3ccc(Cl)cc3)nc3ccccc32)cc1`, the GI50 is 2.57 µM.

As for `COc1ccc(C(=O)Cn2c(C(=O)c3ccc(OC)cc3)nc3ccccc32)cc1`, the GI50 is 0.741 µM.

Regarding `O=C(Cn1c(C(=O)c2ccccc2)nc2ccccc21)c1ccc(F)cc1`, the GI50 is 1.41 µM.

Take `O=C(Cn1c(C(=O)c2ccccc2)nc2ccccc21)c1ccccc1`: the concentration for 50% growth inhibition (GI50) was 52.5 µM.
